Source: PubChem BioAssay AID651779 (The Scripps Research Institute Molecular Screening Center, 2012)
Calls of active or inactive are those of the source.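 How the source made its calls: active means cytotoxic to HEK293 cells with IC50 at or below 10 µM; inactive means IC50 above 10 µM.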

System: HEK293 viability, CellTiter-Glo ATP luminescence
Assay: viability loss in HEK293 cells – cell-based, luminescence, dose response, cytotoxicity control for SRC3 inhibitor project, late-stage follow-up (AID 651779)

| Structure (SMILES) | IC50 |
| --- | --- |
| COC(=O)c1c(C)n(-c2ccc(OC)cc2)c2ccc(O)cc12 | > 35.9 µM (inactive) |
| COc1cc(C2c3cc4c(cc3C(OC3OC5COC(c6cccs6)OC5C(O)C3O)C3COC(=O)C23)OCO4)cc(OC)c1O (stereo unspecified) | 24 µM (inactive) |
| O=C(NC(NC(=S)N1CCOCC1)C(Cl)(Cl)Cl)c1ccc(Cl)cc1 (stereo unspecified) | > 35.9 µM (inactive) |
| CCc1ccc(N=c2c([N+](=O)[O-])nn(-c3ccc4c(c3)OCCO4)n2O)cc1 | > 35.9 µM (inactive) |
| Cc1ccc(OCC(=O)c2cc(C)n(Cc3cccs3)c2C)c([N+](=O)[O-])n1 | > 35.9 µM (inactive) |
| CCOc1ccc(/C=C2\SC(=S)N(CCCC(=O)NCCCN3CCOCC3)C2=O)cc1 | > 35.9 µM (inactive) |
| O=C1CCC2S/C(=C/Nc3ccc(C(F)(F)F)cc3)C(=O)N12 (stereo unspecified) | > 35.9 µM (inactive) |
| O=[N+]([O-])c1nn(-c2ccc3c(c2)OCCO3)n(O)c1=Nc1ccc(Cl)cc1 | > 35.9 µM (inactive) |
| COc1cc2c(cc1OC)C(NC(=O)C(F)(F)F)CNC2=O (stereo unspecified) | 9.84 µM |
| O=[N+]([O-])c1cccc2c1ccc1ncccc12 | > 35.9 µM (inactive) |
| Cc1cc(/C=C2\Cc3ccccc3C2=O)c(C)n1-c1ccccc1 | > 35.9 µM (inactive) |
| Cc1cc(N=c2c([N+](=O)[O-])nn(-c3ccc4c(c3)OCCO4)n2O)ccc1Br | > 35.9 µM (inactive) |
| c1ccc(-c2nnc(-c3ccccn3)nc2NC2CCCCC2)cc1 | > 35.9 µM (inactive) |
| O=C(Nc1nc2ccccc2s1)C1c2ccccc2Oc2ccccc21 | > 35.9 µM (inactive) |
| CC(=O)/C(N=Nc1ccc2c(c1)OCCO2)=C(/C)O | > 35.9 µM (inactive) |
| Cc1cccc(NC(=O)c2cc(Cl)ccc2[N+](=O)[O-])c1 | > 35.9 µM (inactive) |
| Cc1ccc(OCC(=O)c2cc(C)n(-c3ccccc3)c2C)c([N+](=O)[O-])n1 | > 35.9 µM (inactive) |
| O=C(CCl)NC(Cc1ccccc1)c1ccccc1 (stereo unspecified) | 22.3 µM (inactive) |
| Cc1c(/C(O)=C2/C(=O)C(=O)N(Cc3cccnc3)C2c2ccccn2)cnn1-c1ccccc1 (stereo unspecified) | > 35.9 µM (inactive) |
| O=C(Nc1cccnc1)c1ccc(C(=O)Nc2cccnc2)cc1 | > 35.9 µM (inactive) |
| CC(C)n1c(SCC(=O)Nc2nc3c(s2)CCCC3)nc2c1c(=O)n(C)c(=O)n2C | 33.6 µM (inactive) |
| O=[N+]([O-])c1nn(-c2ccc3c(c2)OCCO3)n(O)c1=Nc1ccccc1 | > 35.9 µM (inactive) |
| S=C(Nc1ccccc1)Nc1ccc(OCc2ccc(Cl)cc2Cl)cc1 | > 35.9 µM (inactive) |
| O=C(CCl)N1N=C(c2ccco2)CC1c1ccco1 (stereo unspecified) | 5.77 µM |
| CN(C)c1ccc(CNC(=O)CCNS(=O)(=O)c2cc(Br)cnc2N)cc1 | > 35.9 µM (inactive) |
| COc1cc(N=c2c([N+](=O)[O-])nn(-c3ccc4c(c3)OCCO4)n2O)cc(OC)c1 | 25.6 µM (inactive) |

| Structure (SMILES) | IC50 |
| --- | --- |
| Cc1c(Cl)cccc1N=c1c([N+](=O)[O-])nn(-c2ccc3c(c2)OCCO3)n1O | > 35.9 µM (inactive) |
| Cc1c(CC(=O)NCCCC(=O)O)c(=O)oc2cc3c(cc12)CCC(C)(C)O3 | > 35.9 µM (inactive) |
| CCCCC(=O)Nc1cccn2ncnc12 | > 35.9 µM (inactive) |
| O=C(CCCc1nc(-c2ccccc2Cl)no1)NC1CCCC1 | > 35.9 µM (inactive) |
| S=C(c1ccc(-c2ccccc2)cc1)N1CCOCC1 | > 35.9 µM (inactive) |
| COc1ccc(/C=C2/SC(=S)N(CCC(=O)O)C2=O)cc1 | > 35.9 µM (inactive) |
| CCC(=O)N1CCN(c2ccnc3cc(Cl)ccc23)CC1 | > 35.9 µM (inactive) |
| Cn1nc(C(F)(F)F)c(C#N)c1N1CCN(c2ccc(F)cc2)CC1 | 28.3 µM (inactive) |
| NC(=O)c1sc2nc3c(c(-c4ccco4)c2c1N)CCC3 | > 35.9 µM (inactive) |
| Cc1cc(C)cc(N=c2c([N+](=O)[O-])nn(-c3ccc4c(c3)OCCO4)n2O)c1 | > 35.9 µM (inactive) |
| O=C(Nc1nc(-c2ccccn2)cs1)c1cccc(S(=O)(=O)N2CCOCC2)c1 | > 35.9 µM (inactive) |
| O=C(COC(=O)c1ccc[nH]c1=O)Nc1ccc(N2CCCCC2)cc1 | > 35.9 µM (inactive) |
| CCOC(=O)C(=CNc1ccc(NC2=NCC(C)S2)cc1)C(=O)OCC (stereo unspecified) | > 35.9 µM (inactive) |
| Cc1nn(CC(=O)N2CCN(c3cccc(C(F)(F)F)c3)CC2)c(=O)c2cccn12 | > 35.9 µM (inactive) |
| O=C(O)CN1C(=O)/C(=C\c2ccccc2OCc2ccc(Cl)cc2Cl)SC1=S | > 35.9 µM (inactive) |
| CC(C)N(c1ccccc1)c1ccc(NC(=O)CCl)cc1 | 0.441 µM |
| Cc1ccc(/C=C2/SC(=S)N(CCCC(=O)Nc3ccc(O)cc3)C2=O)cc1 | > 35.9 µM (inactive) |
| NS(=O)(=O)c1ccc(Nc2nc(-c3cccnc3)cs2)cc1 | > 35.9 µM (inactive) |
| Cc1ccc(N=c2c([N+](=O)[O-])nn(-c3ccc4c(c3)OCCO4)n2O)cc1F | > 35.9 µM (inactive) |
| NC(=S)NN=C1CCSc2ccc(Cl)cc21 | 31.4 µM (inactive) |
| Cc1ccc(N=c2c([N+](=O)[O-])nn(-c3ccc4c(c3)OCCO4)n2O)c(Cl)c1 | > 35.9 µM (inactive) |
| O=C(CCl)N1N=C(c2ccco2)CC1c1cccs1 (stereo unspecified) | 2.9 µM |
| CCc1ccc(/C=C2\SC(=S)N(CCCC(=O)NCCCN3CCOCC3)C2=O)cc1 | 17.9 µM (inactive) |
| CC(=O)N1CCN(c2ncnc3ccccc23)CC1 | > 35.9 µM (inactive) |
| Cc1ccc(/C=C2\SC(=S)N(CCCC(=O)NC3CCCC3)C2=O)cc1 | > 35.9 µM (inactive) |
